Here are results for 16 compounds from US11702422B2, “Imidazopyridazines as modulators of IL-17” (Janssen Pharmaceutica NV, priority 2020, dated 2023).

One may read the IC50 as the concentration that inhibits the measured activity by half.

The target in assay [1] is IL-17A(FLAG-Tagged): IL-17RA(His-Tagged) (Homo sapiens, UniProt Q16552, K93Q). Put plainly: IL-17A(FLAG-Tagged): IL-17RA(His-Tagged) Binding Disruption Eu-HTRF Assay. The note with it: IL-17A/IL-17RA binding disruption, simple average if tested more than once. Put shortly: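 IC50 comes from a one-site competition fit of the HTRF 665/620 nm ratio. Compound dilutions (2-fold, 22 points) were held 1 h rt with FLAG-tagged IL-17A dimer, then His-tagged IL-17RA plus Eu-cryptate anti-FLAG and D2 anti-His antibodies were added for 2 h rt.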
Background: In TR-FRET formats the signal depends on donor and acceptor labels being close together.

Assay [2] deals with IL-17A-induced G-CSF production in human normal keratinocyte (NHK). Put plainly: NHK Assay: IL-17A-induced G-CSF production in human normal keratinocytes. Particulars: Homo sapiens, Keratinocyte, 24 h, adult normal human keratinocytes, IL-17A 5 ng/mL, simple average if tested more than once. Format: cell-based. Put shortly:
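HTRF read-out of supernatant G-CSF, quantified from a standard curve, gave IC50 values. Adult keratinocytes, 3000-4000 cells/well, received human IL-17A (5 ng/mL final) pre-mixed 1 h at rt with compound, in 5% FBS and 0.2% DMSO, 24 h at 37° C.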

Chain of UniProt Q16552 (Q16552 with tags, fused parts or gaps K93Q): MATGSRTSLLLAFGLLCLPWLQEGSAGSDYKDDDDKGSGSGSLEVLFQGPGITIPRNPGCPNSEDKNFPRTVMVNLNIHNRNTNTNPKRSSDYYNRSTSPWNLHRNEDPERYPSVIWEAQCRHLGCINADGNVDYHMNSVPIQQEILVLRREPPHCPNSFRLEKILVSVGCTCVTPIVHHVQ

Take `Cc1ccnc(C(=O)N[C@H](c2cn3ncc([C@H](NC(=O)CCC(F)(F)F)C4CC4)cc3n2)C2CCC(F)(F)CC2)n1` [Example 212, N—((S)-(7-((R)-Cyclopropyl(4,4,4-trifluorobutanamido)methyl)imidazo[1,2-b]pyridazin-2-yl)(4,4-difluorocyclohexyl)methyl)-4-methylpyrimidine-2-carboxamide]: the values for the IC50 in assay [1] and in assay [2] were 13 µM and above 20 µM, respectively.
For `N#Cc1ccc(C(=O)N[C@H](c2cn3ncc([C@H](NC(=O)CCC(F)(F)F)C4CC4)cc3n2)C2CCC(F)(F)CC2)cc1` [Example 213, 4-Cyano-N—((S)-(7-((R)-cyclopropyl(4,4,4-trifluorobutanamido)methyl)imidazo[1,2-b]pyridazin-2-yl)(4,4-difluorocyclohexyl)methyl)benzamide] the same measures were 0.45 µM and 20 µM.
Taken in the same sequence, the figures for `Cc1cnccc1C(=O)N[C@H](c1cn2ncc([C@H](NC(=O)CCC(F)(F)F)C3CC3)cc2n1)C1CCC(F)(F)CC1` [Example 214, N—((S)-(7-((R)-Cyclopropyl(4,4,4-trifluorobutanamido)methyl)imidazo[1,2-b]pyridazin-2-yl)(4,4-difluorocyclohexyl)methyl)-3-methylisonicotinamide] were 2.9 µM and above 20 µM.
For `COc1cncc(C(=O)N[C@H](c2cn3ncc([C@H](NC(=O)CCC(F)(F)F)C4CC4)cc3n2)C2CCC(F)(F)CC2)n1` [Example 215, N—((S)-(7-((R)-Cyclopropyl(4,4,4-trifluorobutanamido)methyl)imidazo[1,2-b]pyridazin-2-yl)(4,4-difluorocyclohexyl)methyl)-6-methoxypyrazine-2-carboxamide] the same measures were 2 µM and above 20 µM.
Turning to `O=C(CCC(F)(F)F)N[C@@H](c1cnn2cc([C@@H](NC(=O)c3ccnc(C4CC4)n3)C3CCC(F)(F)CC3)nc2c1)C1CC1` [Example 216, 2-Cyclopropyl-N—((S)-(7-((R)-cyclopropyl(4,4,4-trifluorobutanamido)methyl)imidazo[1,2-b]pyridazin-2-yl)(4,4-difluorocyclohexyl)methyl)pyrimidine-4-carboxamide], the IC50 in assay [1] was 1.6 µM; in assay [2] it was above 20 µM.
In the case of `O=C(CCC(F)(F)F)N[C@@H](c1cnn2cc([C@@H](NC(=O)c3nccc(C(F)(F)F)n3)C3CCC(F)(F)CC3)nc2c1)C1CC1` [Example 217, N—((S)-(7-((R)-Cyclopropyl(4,4,4-trifluorobutanamido)methyl)imidazo[1,2-b]pyridazin-2-yl)(4,4-difluorocyclohexyl)methyl)-4-(trifluoromethyl)pyrimidine-2-carboxamide], the figures for the IC50 in assay [1] and in assay [2] were 4.6 µM and above 20 µM, respectively.
Taken in the same sequence, the figures for `Cc1cc(C(=O)N[C@H](c2cn3ncc([C@H](NC(=O)CCC(F)(F)F)C4CC4)cc3n2)C2CCC(F)(F)CC2)ncn1` [Example 218, N—((S)-(7-((R)-Cyclopropyl(4,4,4-trifluorobutanamido)methyl)imidazo[1,2-b]pyridazin-2-yl)(4,4-difluorocyclohexyl)methyl)-6-methylpyrimidine-4-carboxamide] were 2 µM and above 20 µM.
For `Cc1nccnc1C(=O)N[C@H](c1cn2ncc([C@H](NC(=O)CCC(F)(F)F)C3CC3)cc2n1)C1CCC(F)(F)CC1` [Example 219, N—((S)-(7-((R)-Cyclopropyl(4,4,4-trifluorobutanamido)methyl)imidazo[1,2-b]pyridazin-2-yl)(4,4-difluorocyclohexyl)methyl)-3-methylpyrazine-2-carboxamide] the same measures were 2.1 µM and above 20 µM.
Taken in the same sequence, the figures for `Cc1cncc(C(=O)N[C@H](c2cn3ncc([C@H](NC(=O)CCC(F)(F)F)C4CC4)cc3n2)C2CCC(F)(F)CC2)n1` [Example 220, N—((S)-(7-((R)-Cyclopropyl(4,4,4-trifluorobutanamido)methyl)imidazo[1,2-b]pyridazin-2-yl)(4,4-difluorocyclohexyl)methyl)-6-methylpyrazine-2-carboxamide] were 15 µM and above 20 µM.
Regarding `O=C(CCC(F)(F)F)N[C@@H](c1cnn2cc([C@@H](NC(=O)c3cccc(C(F)(F)F)n3)C3CCC(F)(F)CC3)nc2c1)C1CC1` [Example 221, N—((S)-(7-((R)-Cyclopropyl(4,4,4-trifluorobutanamido)methyl)imidazo[1,2-b]pyridazin-2-yl)(4,4-difluorocyclohexyl)methyl)-6-(trifluoromethyl)picolinamide], the IC50 in assay [1] is 16 µM; in assay [2] it was above 20 µM.
Taken in the same sequence, the figures for `Cc1ncncc1C(=O)N[C@H](c1cn2ncc([C@H](NC(=O)CCC(F)(F)F)C3CC3)cc2n1)C1CCC(F)(F)CC1` [Example 222, N—((S)-(7-((R)-Cyclopropyl(4,4,4-trifluorobutanamido)methyl)imidazo[1,2-b]pyridazin-2-yl)(4,4-difluorocyclohexyl)methyl)-4-methylpyrimidine-5-carboxamide] were 1 µM and above 20 µM.
With `O=C(CCC(F)(F)F)N[C@@H](c1cnn2cc([C@@H](NC(=O)c3cnccn3)C3CCC(F)(F)CC3)nc2c1)C1CC1` [Example 223, N—((S)-(7-((R)-Cyclopropyl(4,4,4-trifluorobutanamido)methyl)imidazo[1,2-b]pyridazin-2-yl)(4,4-difluorocyclohexyl)methyl)pyrazine-2-carboxamide], the IC50 was 2.9 µM in assay [1] and above 20 µM in assay [2].
With `Cc1cccc(C(=O)N[C@H](c2cn3ncc([C@H](NC(=O)CCC(F)(F)F)C4CC4)cc3n2)C2CCC(F)(F)CC2)n1` [Example 224, N—((S)-(7-((R)-Cyclopropyl(4,4,4-trifluorobutanamido)methyl)imidazo[1,2-b]pyridazin-2-yl)(4,4-difluorocyclohexyl)methyl)-6-methylpicolinamide], the IC50 in assay [1] is 1.7 µM; in assay [2] it was above 20 µM.
Turning to `N#Cc1ccncc1C(=O)N[C@H](c1cn2ncc([C@H](NC(=O)CCC(F)(F)F)C3CC3)cc2n1)C1CCC(F)(F)CC1` [Example 225, 4-Cyano-N—((S)-(7-((R)-cyclopropyl(4,4,4-trifluorobutanamido)methyl)imidazo[1,2-b]pyridazin-2-yl)(4,4-difluorocyclohexyl)methyl)nicotinamide], the IC50 was 9.5 µM in assay [1] and above 20 µM in assay [2].
Taken in the same sequence, the figures for `COc1cccc(C(=O)N[C@H](c2cn3ncc([C@H](NC(=O)CCC(F)(F)F)C4CC4)cc3n2)C2CCC(F)(F)CC2)n1` [Example 226, N—((S)-(7-((R)-Cyclopropyl(4,4,4-trifluorobutanamido)methyl)imidazo[1,2-b]pyridazin-2-yl)(4,4-difluorocyclohexyl)methyl)-6-methoxypicolinamide] were 2.5 µM and above 20 µM.
Take `CC(C)Oc1cccc(C(=O)N[C@H](c2cn3ncc([C@H](NC(=O)CCC(F)(F)F)C4CC4)cc3n2)C2CCC(F)(F)CC2)n1` [Example 227, N—((S)-(7-((R)-Cyclopropyl(4,4,4-trifluorobutanamido)methyl)imidazo[1,2-b]pyridazin-2-yl)(4,4-difluorocyclohexyl)methyl)-6-isopropoxypicolinamide]: the IC50 in assay [1] turned out to be 0.9 µM; in assay [2], 20 µM.
